Patent publication US20030186997A1, “2,5-Dihydro-pyrazolo[3,4-d]pyrimidin-4-ones with an anticonsulsive action and methods for producing the same” (priority 2000, published 2003)

SMILES	melting point [°C]
Cc1cc(C)c(Cn2cnc3n[nH]cc3c2=O)c(C)c1 [Compound 9, 5-(2,4,6-trimethylbenzyl)-2,5-dihydropyrazolo[3,4-d]-pyrimidin-4-one]	199 to 200
O=c1c2cn(Cc3ccccc3)nc2ncn1Cc1c(F)cccc1F [Compound 56, 5-(2,6-difluorobenzyl)-2-benzyl-2,5-dihydropyrazolo[3,4-d]pyrimidin-4-one]	173 to 174
Cc1ccc(Cn2cnc3nn(C)cc3c2=O)cc1 [Compound 16, 5-(4-methylbenzyl)-2-methyl-2,5-dihydropyrazolo[3,4-d]-pyrimidin-4-one]	224 to 226
Cn1cc2c(=O)n(Cc3ccccc3I)cnc2n1 [Compound 29, 5-(2-iodobenzyl)-2-methyl-2,5-dihydropyrazolo[3,4-d]-pyrimidin-4-one]	187 to 190
Cn1cc2c(=O)n(Cc3ccccc3C(F)(F)F)cnc2n1 [Compound 20, 5-(2-trifluoromethylbenzyl)-2-methyl-2,5-dihydropyrazolo[3,4-d]pyrimidin-4-one]	215 to 217
O=c1c2cn(-c3ccccc3)nc2ncn1Cc1ccccn1 [Compound 53, 5-(2-pyridinylmethyl)-2-phenyl-2,5-dihydropyrazolo[3,4-d]-pyrimidin-4-one]	199 to 201
COc1ccccc1Cn1cnc2n[nH]cc2c1=O [Compound 7, 5-(2-methoxybenzyl)-2,5-dihydropyrazolo[3,4-d]-pyrimidin-4-one]	188 to 189
CCCCn1cc2c(=O)n(Cc3ccc(C)cc3)cnc2n1 [Compound 48, 5-(4-methylbenzyl)-2-butyl-2,5-dihydropyrazolo[3,4-d]-pyrimidin-4-one]	146 to 147
CCn1cc2c(=O)n(Cc3ccc(C)cc3)cnc2n1 [Compound 36, 5-(4-methylbenzyl)-2-ethyl-2,5-dihydropyrazolo[3,4-d]-pyrimidin-4-one]	178 to 179
CCCn1cc2c(=O)n(Cc3c(F)cccc3Cl)cnc2n1 [Compound 39, 5-(2-chloro-6-fluorobenzyl)-2-propyl-2,5-dihydropyrazolo[3,4-d]pyrimidin-4-one]	163 to 165
Cn1cc2c(=O)n(Cc3ccc(Cl)cc3Cl)cnc2n1 [Compound 28, 5-(2,4-dichlorobenzyl)-2-methyl-2,5-dihydropyrazolo[3,4-d]pyrimidin-4-one]	218 to 219
Cc1ccc(Cn2cnc3nn(C(C)C)cc3c2=O)cc1 [Compound 44, 5-(4-methylbenzyl)-2-isopropyl-2,5-dihydropyrazolo[3,4-d]-pyrimidin-4-one]	145 to 147
CC(C)n1cc2c(=O)n(Cc3ccccn3)cnc2n1 [Compound 46, 5-(2-pyridinylmethyl)-2-isopropyl-2,5-dihydropyrazolo[3,4-d]pyrimidin-4-one]	163 to 164
Cc1ccc(Cn2cnc3nn(-c4ccccc4)cc3c2=O)cc1 [Compound 51, 5-(4-methylbenzyl)-2-phenyl-2,5-dihydropyrazolo[3,4-d]-pyrimidin-4-one]	182 to 183
Cn1cc2c(=O)n(Cc3ccc(C(F)(F)F)cc3)cnc2n1 [Compound 22, 5-(4-trifluoromethylbenzyl)-2-methyl-2,5-dihydropyrazolo[3,4-d]pyrimidin-4-one]	211 to 212
O=c1c2cn(-c3ccccc3)nc2ncn1Cc1c(F)cccc1F [Compound 52, 5-(2,6-difluorobenzyl)-2-phenyl-2,5-dihydropyrazolo[3,4-d]pyrimidin-4-one]	189 to 191
Cc1nc2nn(C)cc2c(=O)n1Cc1ccccc1C(F)(F)F [Compound 63, 5-(2-trifluoromethylbenzyl)-2,6-dimethyl-2,5-dihydropyrazolo[3,4-d]pyrimidin-4-one]	192 to 193
Cc1nc2nn(C)cc2c(=O)n1Cc1c(F)cccc1F [Compound 64, 5-(2,6-difluorobenzyl)-2,6-dimethyl-2,5-dihydropyrazolo[3,4-d]pyrimidin-4-one]	201 to 202
CCCCn1cc2c(=O)n(Cc3c(F)cccc3Cl)cnc2n1 [Compound 47, 5-(2-chloro-6-fluorobenzyl)-2-butyl-2,5-dihydropyrazolo[3,4-d]pyrimidin-4-one]	156 to 157
CCCn1cc2c(=O)n(Cc3c(F)cccc3F)cnc2n1 [Compound 41, 5-(2,6-difluorobenzyl)-2-propyl-2,5-dihydropyrazolo[3,4-d]pyrimidin-4-one]	167 to 168
Cn1cc2c(=O)n(Cc3c(F)cccc3Cl)cnc2n1 [Compound 23, 5-(2-chloro-6-fluorobenzyl)-2-methyl-2,5-dihydropyrazolo[3,4-d]pyrimidin-4-one]	216 to 218
Cn1cc2c(=O)n(Cc3ccccn3)cnc2n1 [Compound 33, 5-(2-pyridinylmethyl)-2-methyl-2,5-dihydropyrazolo[3,4-d]-pyrimidin-4-one]	203 to 205
Cc1nc2n[nH]cc2c(=O)n1Cc1ccccc1Cl [Compound 61, 5-(2-chlorobenzyl)-6-methyl-2,5-dihydropyrazolo[3,4-d]-pyrimidin-4-one]	222 to 224

SMILES	melting point [°C]
Cc1cc(C)c(Cn2cnc3nn(C)cc3c2=O)c(C)c1 [Compound 32, 5-(2,4,6-trimethylbenzyl)-2-methyl-2,5-dihydropyrazolo[3,4-d]pyrimidin-4-one]	182 to 184
Cn1cc2c(=O)n(Cc3ccccc3C#N)cnc2n1 [Compound 30, 5-(2-cyanobenzyl)-2-methyl-2,5-dihydropyrazolo[3,4-d]-pyrimidin-4-one]	198 to 199
O=c1c2c[nH]nc2ncn1Cc1cccnc1 [Compound 11, 5-(3-pyridinylmethyl)-2,5-dihydropyrazolo[3,4-d]-pyrimidin-4-one]	200 to 201
Cn1cc2c(=O)n(Cc3ccccc3-c3ccccc3)cnc2n1 [Compound 24, 5-(2-phenylbenzyl)-2-methyl-2,5-dihydropyrazolo[3,4-d]-pyrimidin-4-one]	189 to 191
O=c1c2cn(Cc3ccccn3)nc2ncn1Cc1c(F)cccc1F [Compound 59, 5-(2,6-difluorobenzyl)-2-pyridin-2-ylmethyl-2,5-dihydropyrazolo[3,4-d]pyrimidin-4-one]	174 to 175
CCn1cc2c(=O)n(Cc3c(F)cccc3Cl)cnc2n1 [Compound 35, 5-(2-chloro-6-fluorobenzyl)-2-ethyl-2,5-dihydropyrazolo[3,4-d]pyrimidin-4-one]	207 to 209
O=c1c2cn(-c3ccccc3)nc2ncn1Cc1c(F)cccc1Cl [Compound 50, 5-(2-chloro-6-fluorobenzyl)-2-phenyl-2,5-dihydropyrazolo[3,4-d]pyrimidin-4-one]	195 to 197
CCCn1cc2c(=O)n(Cc3ccccn3)cnc2n1 [Compound 42, 5-(2-pyridinylmethyl)-2-propyl-2,5-dihydropyrazolo[3,4-d]-pyrimidin-4-one]	179 to 181
O=c1c2cn(Cc3ccccc3)nc2ncn1Cc1ccccn1 [Compound 57, 5-(2-pyridinylmethyl)-2-benzyl-2,5-dihydropyrazolo[3,4-d]-pyrimidin-4-one]	182 to 184
O=c1c2c[nH]nc2ncn1Cc1ccncc1 [Compound 12, 5-(4-pyridinylmethyl)-2,5-dihydropyrazolo[3,4-d]-pyrimidin-4-one]	220 to 221
Cc1cccc(Cn2cnc3nn(C)cc3c2=O)c1 [Compound 15, 5-(3-methylbenzyl)-2-methyl-2,5-dihydropyrazolo[3,4-d]-pyrimidin-4-one]	114 to 117
Cn1cc2c(=O)n(Cc3ccccc3[N+](=O)[O-])cnc2n1 [Compound 26, 5-(2-nitrobenzyl)-2-methyl-2,5-dihydropyrazolo[3,4-d]-pyrimidin-4-one]	220 to 222
CCCn1cc2c(=O)n(Cc3ccc(C)cc3)cnc2n1 [Compound 40, 5-(4-methylbenzyl)-2-propyl-2,5-dihydropyrazolo[3,4-d]-pyrimidin-4-one]	157 to 158
CC(C)n1cc2c(=O)n(Cc3c(F)cccc3F)cnc2n1 [Compound 45, 5-(2,6-difluorobenzyl)-2-isopropyl-2,5-dihydropyrazolo[3,4-d]pyrimidin-4-one]	156 to 157
Cn1cc2c(=O)n(Cc3ccccc3Cl)cnc2n1 [Compound 18, 5-(2-chlorobenzyl)-2-methyl-2,5-dihydropyrazolo[3,4-d]-pyrimidin-4-one]	205 to 206
Cn1cc2c(=O)n(Cc3ccncc3)cnc2n1 [Compound 34, 5-(4-pyridinylmethyl)-2-methyl-2,5-dihydropyrazolo[3,4-d]-pyrimidin-4-one]	192 to 195
O=c1c2c[nH]nc2ncn1Cc1ccccn1 [Compound 10, 5-(2-pyridinylmethyl)-2,5-dihydropyrazolo[3,4-d]-pyrimidin-4-one]	224 to 225
Cn1cc2c(=O)n(Cc3ccc(F)cc3)cnc2n1 [Compound 31, 5-(4-fluorobenzyl)-2-methyl-2,5-dihydropyrazolo[3,4-d]-pyrimidin-4-one]	216 to 217
Cn1cc2c(=O)n(Cc3c(Cl)cccc3Cl)cnc2n1 [Compound 25, 5-(2,6-dichlorobenzyl)-2-methyl-2,5-dihydro-pyrazolo[3,4-d]pyrimidin-4-one]	200 to 202
CCn1cc2c(=O)n(Cc3ccccn3)cnc2n1 [Compound 38, 5-(2-pyridinylmethyl)-2-ethyl-2,5-dihydropyrazolo[3,4-d]-pyrimidin-4-one]	190 to 191
O=c1c2cn(Cc3ccccc3)nc2ncn1Cc1c(F)cccc1Cl [Compound 54, 5-(2-chloro-6-fluorobenzyl)-2-benzyl-2,5-dihydropyrazolo[3,4-d]pyrimidin-4-one]	176 to 177
Cn1cc2c(=O)n(Cc3ccc(Cl)cc3)cnc2n1 [Compound 27, 5-(4-chlorobenzyl)-2-methyl-2,5-dihydropyrazolo[3,4-d]-pyrimidin-4-one]	209 to 210
CCCCn1cc2c(=O)n(Cc3c(F)cccc3F)cnc2n1 [Compound 49, 5-(2,6-difluorobenzyl)-2-butyl-2,5-dihydropyrazolo[3,4-d]-pyrimidin-4-one]	151 to 152
